Source: patent publication US5643907A, “Pharmaceutical composition containing 5-morpholinomethyl-3-(4-chlorobenzylideneamine)-2-oxazolidinone and its use for the treatment of CNS disorders” (priority 1993, dated 1997)
Counter-ions that a name gives are not always drawn.

Columns and labels:
uptake of noradrenaline = test: Effect on the uptake of noradrenaline in vivo (protection from 6-OHDA); design: species or system rat; settings: for Concentration of noradrenaline in the brain X ± SEM: control 205 ± 10, 5
Description: The point of reference for measuring the inhibiting effect on the uptake of noradrenaline was the protection from the effect of 6-hydroxydopamine (6-OHDA), which was administered intraventricularly. Rats were applied intraventricularly 250 μg of 6-OHDA in the volume of 20 μl of 0,9% solution of […] and 0,1% solution of ascorbic acid. […] The animals were decapitated 7 days after and the level of noradrenaline in the whole brain was measured by the division on the Sephadex G-10 column and fluorimetric assay following oxidation.

uptake of serotonin [1] = test: Effect on the uptake of serotonin in vivo (protection from p-chloramphetamine)
[2] = tested on: mice premedicated with pargyline; test: Intensification of L-dopa effects in mice premedicated with pargyline; assay type: in vivo, mouse; settings: for Reaction of mice according to score: L-dopa 200 mg/kg i.p. after pargyline, control 1-2
Description: 3) The intensification of L-dopa effects in mice premedicated with pargyline.
Three hours after the oral administration of pargyline in the dosage of 40 mg/kg, there was applied orally either the examined preparation or IMI, followed after one hour by L-dopa administered intraperitoneally in the dosage of 200 mg/kg. The behaviour of the mice was evaluated according to the following 5-level score:
1 - piloerection, Straub's tail, exophtalmos of eyes, minute salivating, irritability.
2 - as above + translocations, single jumps.
3 - as above + bigger incitement of mobility, frequent jumps, climbing, single squeaks.
4 - as above + great incitement of mobility, aggresion, fights.
5 - as above + maximum incitement of mobility and aggresion

[3] = tested on: mice in the conditions of hypoxia; test: Effect on the time of survival in the conditions of hypoxia; assay type: in vivo, mouse; settings: for The number of mice surviving in the conditions of hypoxia: surviving/complete number
Description: The examined preparation was applied i.o. in the dosages 5, 10, 50, 75, 100 mg/kg 60 minutes before the beginning of the experiment. The experiment lasted until 0-3 animals survived in the control group. Subsequently oxygen was let in and finally normal air. The number of animals which survived in the control group was compared to the number of animals in the group administered the examined preparation. The number of surviving mice is presented in relation to the complete number of examined mice.

rats behaviour = test: Influence on the rats behaviour in "despair test" (Porsolt), immobility period; assay type: in vivo, rat; settings: for The immobility period, % of control: twice
Description: 1) The influence on the rats behaviour in "despair test".
The rats were placed separately in upright, metallic cylindrical containers, 60 cm high and 18 cm in diameter, containing 15 centimeters of water, at a temperature of 25° C. […] After 24 hours the rats were dived in water again and for 5 minutes the complete immobility period was measured. The examined preparation (containing 5-morpholinomethyl-3-(4-chlorobenzylideneamine)-2-oxazolidinone hydrochloride) or imipramine (IMI) was administered per os twice: at 24 hours and one hour before the beginning of the observation.

[4] = tested on: process of learning and memorising; test: Effect on the process of learning and memorising (conditioned jump on a bar); assay type: in vivo, rat
uptake of serotonin [5] = settings: 200 mg/kg before p-CA; control 353 ± 117, 7
[6] = tested on: reserpine pretreated mice; test: Intensification of L-Dopa effects in reserpine pretreated mice; assay type: in vivo, mouse
Description: 2) The intensification of L-Dopa effects in reserpine pretreated mice.
The examined preparation was administered to mice p.o. in the dosages of 40 and 200 mg/kg 17 hours after reserpine in the dosage of 2,5 mg/kg had been administered intraperitoneally. After one hour L-dopa was injected in the dosage of 300 mg/kg. The intensification of L-dopa anti-reserpine action was evaluated according to the following parameters of the animals behaviour: mobility, irritability, ptosis and body temperature. According to the same empirical system IMI was examined in the dosages of 8 and 40 mg/kg.

beta-adrenergic receptor = test: Influence of chronic administration on concentration of beta-adrenergic cerebral receptors in vivo (3H-dihydroalprenolol bonding to cerebral cortex membranes); design: species or system rat
Description: Rats were administered the examined preparation in the form of intraperitoneally injection and the dosage of 200 mg/kg twice daily for six weeks. In the same empirical system IMI was examined in the dosage of 10 mg/kg. The animals were killed 24 hours after the last injection and their cerebral cortexes were skeletonized.
The population of the beta-adrenergic receptor was characterised by the examination of the parameters of the ^3 H-dihydroalprenolol (^3 H-DHA) bonding to the membranes (fractiom P2) of the cerebral cortex. The tissue was homogenised in 20 volumes of the 50 mM buffer TRIS-HCl, pH 7,6 in the Polytron disintegrator (position 4,155) and centrifuged at 1000 g for 10 minutes. The supernatant was decanted and again centrifuged at 25000 for 20 minutes. The operations were conducted in the temperature of 0°-4° C. The precipitate, after the second centrifugation, decanting and removing the supernatant, was kept in the temperature of -18° C. until the time of incubation (no longer than 48 hours). The final fraction P2 was obtained by the subsequent process of the sediment homogenisation in such a volume of 50 mM buffer TRIS-HCl, pH 7,6, that the final concentration of protein amounted to 1,5 mg/ml.
The incubation mixture, containing 450 μl of the fraction P2 suspension, 50 μl of the ^3 H-DHA solution (6 different solutions; the final concentrations in the mixture […]) and 50 μl of buffer or propranolol solution (the final concentration in the sample […]) was incubated for 30 minutes in the temperature of 25° C. The incubation was finished by filtrating the suspension through filters made of glass fibres. The filters were twice rinsed with 5 ml of cold (0° C.) buffer TRIS-HCl, pH 7,6, and placed in scintillation minivessels, to which Bray's liquid was added. The radioactivity was measured by the Packard scintillation counter, model B329 with the efficiency of 36-37%.
The specific bonding was defined as the radioactivity difference between the samples incubated in the absence of propranolol (complete bonding) and in the presence of 10 μM of propranolol (blank). The data from the counter […] were recalculated individually into the decay frequence […], calculating it from the individual efficiency of each sample, received from the relation of impulses in the canals A and B. Bmax value and the constant of dissociation KD was calculated from the Scatchard diagrams, which were rectilinear.

[7] = mice premedicated with pargyline
[8] = 100 mg/kg, controls: Examined 9/60 (p <0, 01), Piracetam 7/40 (n.d.), Pyritinol 8/60 (p <0, 01)
[9] = 200 mg/kg daily dosage, chronic
[10] = 10 mg/kg chronic administration, six weeks

For `NCCc1cc(O)c(O)cc1O` [6-OHDA, 6-hydroxydopamine, reference compound], the “decline of the noradrenalin content in the cerebrum” value (uptake of noradrenaline; 6-OHDA administered intraventricularly) was “over 50%” and the “noradrenaline, % in relation to the group after chemosympathectomy” value (“noradrenaline, % in relation” below) (uptake of noradrenaline; 6-OHDA alone (reference group), control 216) was 100%.

`O=C1OC(CN2CCOCC2)CN1N=Cc1ccc(Cl)cc1` (centres unmarked) [Examined preparation, 5-morpholinomethyl-3-(4-chlorobenzylideneamine)-2-oxazolidinone hydrochloride] was tested, and the “serotonin, % in relation to the group after p-chloramphetamine” value (“serotonin, % … after p-chloramphetamine” for short) (uptake of serotonin [1]; 40 mg/kg before p-CA) was 107%, the “serotonin, % … after p-chloramphetamine” value (uptake of serotonin [1]; 200 mg/kg before p-CA) was 172% and the “prevention of the p-chloramphetamine effect” value (uptake of serotonin [1]; high dosage) was “prevented the p-chloramphetamine effect completely”. The “effect on the washing-out action of p-chloramphetamine” value (uptake of serotonin [1]; low dosage) was “did not produce any effects on the washing-out action of p-chloramphetamine”, the “Reaction of mice according to score” value ([2]; 10 mg/kg p.o.) was 5 and the “Reaction of mice according to score” value ([2]; 20 mg/kg p.o.) was 5. For the same molecule, the “Reaction of mice according to score” value ([2]; 40 mg/kg p.o.) was 5, the “Reaction of mice according to score” value ([2]; 200 mg/kg p.o.) was 3-4 and the “mobility and emotion incitement” value ([2]; after the dosages of 10, 20 and 40 mg/kg) was “strongest mobility and emotion incitement”. The “effectiveness compared with IMI” value [2, 7] was “stronger effectiveness than IMI”, the “intensification of L-dopa effects” value [2, 7] was “very strong intensification of L-dopa effects” and the “The number of mice surviving in the conditions of hypoxia” value (from here on “The number of mice surviving”) ([3]; 5 mg/kg, control 7/40, p n.d.) was 5/40. The “The number of mice surviving” value ([3]; 10 mg/kg, control 5/40, p n.d.) was 6/40, the “The number of mice surviving” value ([3]; 50 mg/kg, control 9/60, p <0, 01) was 23/60 and the “The number of mice surviving” value ([3]; 75 mg/kg, control 9/60, p <0, 01) was 28/60. For the same molecule, the “The number of mice surviving” value [3, 8] was 47/60, the “time of mice survival in the conditions of hypoxia” value ([3]; in comparison to piracetam and pyritinol) was “prolongs the time of mice survival in the conditions of hypoxia” and the “noradrenaline, % in relation” value (uptake of noradrenaline; 40 (mg/kg) before 6-OHDA) was 92%. The “noradrenaline, % in relation” value (uptake of noradrenaline; 200 (mg/kg) before 6-OHDA) was 155%, the “Concentration of noradrenaline in the brain X ± SEM” value (uptake of noradrenaline; 200 (mg/kg) before 6-OHDA) was 148 ± 24, 9 mg/kg tissue and the “inhibiting the uptake of noradrenaline” value (uptake of noradrenaline; high dosages) was “proves effective in inhibiting the uptake of noradrenaline”. The “inhibition of the effect of 6-OHDA compared with IMI” value (uptake of noradrenaline; higher dosage) was “inhibits it almost as effectively as IMI”, the “prevention of the effect of 6-OHDA” value (uptake of noradrenaline; low dosage) was “does not prevent the effect of 6-OHDA completely” and the “The immobility period, % of control” value (rats behaviour; 40 mg/kg p.o.) was 89%. The “effect on immobility compared with IMI (20 mg/kg)” value (rats behaviour; 200 mg/kg) was “equals approximately to the effect of IMI (20 mg/kg)”, the “shortened the rats' immobility period in relation to the control group” value (rats behaviour; 200 mg/kg) was 18% and the “The immobility period, % of control” value (rats behaviour; 200 mg/kg p.o.) was 82%. For the same molecule, the process of learning ([4]; 5 mg/kg i.p. everyday) was “accelerates the process of learning”, the “effect on learning compared with piracetam and pyritinol” value ([4]; 5 mg/kg i.p. vs piracetam 100 mg/kg, pyritinol 100 mg/kg) was “weaker than the effect of piracetam, but stronger than the effect of pyritinol” and the “Concentration of serotonin in the brain X ± SEM” value (uptake of serotonin [5]) was 367 ± 30, 1 mg/kg tissue. For the same molecule, the “irritability and incitement, second phase” value ([6]; 200 mg/kg, after 90 minutes) was “there appeared irritability and big incitement, which lasted over an hour”, the “body posture (righting) reflex” value ([6]; 200 mg/kg, first hour after the application) was “loss of body posture (righting) reflex” and the “effectiveness of smaller versus bigger dosage” value ([6]; 40 vs 200 mg/kg) was “A smaller dosage proved to be more effective than a bigger one”. For the same molecule, the “effect on ptosis, hypothermy, mobility and irritability” value ([6]; reserpine pretreated mice + L-dopa) was “reduced ptosis and hypothermy and raised the animals' mobility and irritability”, the “intensification of the behavioural effects of L-dopa” value ([6]; reserpine pretreated mice, compared with IMI) was “intensified the behavioural effects of L-dopa action in reserpine pretreated mice in the same way as IMI” and the “Bmax, % of control” value (beta-adrenergic receptor; 40 mg/kg daily dosage, chronic) was 67%. The “KD, % of control” value (beta-adrenergic receptor; 40 mg/kg daily dosage, chronic) was 63%, the “Bmax, % of control” value (beta-adrenergic receptor; [9]) was 72% and the “KD, % of control” value (beta-adrenergic receptor; [9]) was 68%. For the same molecule, the “effect on the concentration of receptors, compared with imipramine” value (beta-adrenergic receptor; both dosages, chronic) was “did not differ considerably” and the “constant of dissociation value KD / beta-adrenergic receptor affinity” value (beta-adrenergic receptor; both dosages, chronic, as distinct from imipramine) was “statistically considerable decline of the constant of dissociation value KD and consequently the increase of the beta-adrenergic receptor affinity”.

With `CN(C)CCCN1c2ccccc2CCc2ccccc21` [IMI, imipramine, reference compound] the “Reaction of mice according to score” value ([2]; 4 mg/kg p.o.) was 4, the “Reaction of mice according to score” value ([2]; 40 mg/kg p.o.) was 3-4 and the “noradrenaline, % in relation” value (uptake of noradrenaline; 20 mg/kg before 6-OHDA) was 188%. For the same molecule, the “Concentration of noradrenaline in the brain X ± SEM” value (uptake of noradrenaline; 20 mg/kg before 6-OHDA) was 179 ± 113, 5 mg/kg tissue, the “The immobility period, % of control” value (rats behaviour; 20 mg/kg p.o.) was 88% and the “Temper. 60' (body temperature)” value ([6]; 8 mg/kg + L-Dopa 300 mg/kg after reserpine) was 34,3. For the same molecule, the “Bmax, % of control” value (beta-adrenergic receptor; [10]) was 60% and the “KD, % of control” value (beta-adrenergic receptor; [10]) was 129%.

For `NC(=O)CN1CCCC1=O` [Piracetam, piracetam, reference compound], the “The number of mice surviving” value [3, 8] was 6/40 and the “The number of mice surviving” value ([3]; 300 mg/kg, control 6/60, p <0, 05) was 18/60.

For `Cc1ncc(CSSCc2cnc(C)c(O)c2CO)c(CO)c1O` [Pyritinol, pyritinol, reference compound], the “The number of mice surviving” value [3, 8] was 30/60.

With `CC(N)Cc1ccc(Cl)cc1` (centres unmarked) [p-CA, p-chloramphetamine, reference compound] the “serotonin, % … after p-chloramphetamine” value (uptake of serotonin [1]; p-CA alone (reference group), control 169) was 100% and the “decline of the cerebral serotonine concentration” value (uptake of serotonin [1]; p-chloramphetamine alone) was 40%.
